Source: ChEMBL document CHEMBL1201862, “PubChem BioAssay data set” (2004)
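96-well plates; 48 h exposure; 5 concentrations. Endpoints by linear interpolation between flanking doses. Not reached: highest tested concentration assigned. Abbreviation: GI50, concentration required for 50% inhibition of growth.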 The source made the active and inactive calls. Rule as the data show it: active = GI50 up to about 1.1 µM and inactive = higher.

How the values were obtained:
Test in all cases: DTP human tumour cell line panel, 48 h
A549 = tested on: A549
CCRF-CEM = tested on: CCRF-CEM
COLO 205 = tested on: COLO 205
DLD-1 = tested on: DLD-1
DMS-114 = tested on: DMS-114
DMS-273 = tested on: DMS-273
EKVX = tested on: EKVX
HCC 2998 = tested on: HCC 2998
HCT-116 = tested on: HCT-116
HCT-15 = tested on: HCT-15
HL-60 = tested on: HL-60
HOP-18 = tested on: HOP-18
HOP-62 = tested on: HOP-62
HOP-92 = tested on: HOP-92
HT-29 = tested on: HT-29
IGROV-1 = tested on: IGROV-1
K562 = tested on: K562
KM-20L2 = tested on: KM-20L2
KM12 = tested on: KM12
LOX IMVI = tested on: LOX IMVI
M19-MEL = tested on: M19-MEL
MCF7 = tested on: MCF7
MOLT-4 = tested on: MOLT-4
Malme-3M = tested on: Malme-3M
NCI-H226 = tested on: NCI-H226
NCI-H23 = tested on: NCI-H23
NCI-H460 = tested on: NCI-H460
NCI-H522 = tested on: NCI-H522
NCI/ADR-RES = tested on: NCI/ADR-RES
OVCAR-3 = tested on: OVCAR-3
OVCAR-4 = tested on: OVCAR-4
OVCAR-5 = tested on: OVCAR-5
OVCAR-8 = tested on: OVCAR-8
RPMI-8226 = tested on: RPMI-8226
RXF 393 = tested on: RXF 393
SF-268 = tested on: SF-268
SF-295 = tested on: SF-295
SF-539 = tested on: SF-539
SK-MEL-28 = tested on: SK-MEL-28
SK-MEL-2 = tested on: SK-MEL-2
SK-MEL-5 = tested on: SK-MEL-5
SK-OV-3 = tested on: SK-OV-3
SN12C = tested on: SN12C
SNB-19 = tested on: SNB-19
SNB-75 = tested on: SNB-75
SNB-78 = tested on: SNB-78
SW-620 = tested on: SW-620
U-251 = tested on: U-251
UACC-257 = tested on: UACC-257
UACC-62 = tested on: UACC-62
UO-31 = tested on: UO-31
XF498 = tested on: XF498

COc1cc[n+](C)cc1
GI50 (A549): > 100 µM (inactive)
GI50 (CCRF-CEM): > 100 µM (inactive)
GI50 (COLO 205): > 100 µM (inactive)
GI50 (DLD-1): > 100 µM (inactive)
GI50 (DMS-114): > 100 µM (inactive)
GI50 (DMS-273): > 100 µM (inactive)
GI50 (EKVX): > 100 µM (inactive)
GI50 (HCC 2998): > 100 µM (inactive)
GI50 (HCT-116): > 100 µM (inactive)
GI50 (HCT-15): > 100 µM
GI50 (HL-60): > 100 µM (inactive)
GI50 (HOP-18): > 100 µM (inactive)
GI50 (HOP-62): > 100 µM (inactive)
GI50 (HOP-92): > 100 µM (inactive)
GI50 (HT-29): > 100 µM (inactive)
GI50 (IGROV-1): > 100 µM (inactive)
GI50 (K562): > 100 µM (inactive)
GI50 (KM-20L2): > 100 µM (inactive)
GI50 (KM12): > 100 µM (inactive)
GI50 (LOX IMVI): > 100 µM (inactive)
GI50 (M19-MEL): > 100 µM (inactive)
GI50 (MCF7): > 100 µM (inactive)
GI50 (MOLT-4): > 100 µM (inactive)
GI50 (Malme-3M): > 100 µM (inactive)
GI50 (NCI-H226): > 100 µM (inactive)
GI50 (NCI-H23): > 100 µM (inactive)
GI50 (NCI-H460): > 100 µM (inactive)
GI50 (NCI-H522): > 100 µM (inactive)
GI50 (NCI/ADR-RES): > 100 µM (inactive)
GI50 (OVCAR-3): > 100 µM (inactive)
GI50 (OVCAR-4): > 100 µM (inactive)
GI50 (OVCAR-5): > 100 µM (inactive)
GI50 (OVCAR-8): > 100 µM (inactive)
GI50 (RPMI-8226): > 100 µM (inactive)
GI50 (RXF 393): > 100 µM (inactive)
GI50 (SF-268): > 100 µM (inactive)
GI50 (SF-295): > 100 µM (inactive)
GI50 (SF-539): > 100 µM (inactive)
GI50 (SK-MEL-28): > 100 µM (inactive)
GI50 (SK-MEL-2): > 100 µM (inactive)
GI50 (SK-MEL-5): > 100 µM (inactive)
GI50 (SK-OV-3): > 100 µM (inactive)
GI50 (SN12C): > 100 µM (inactive)
GI50 (SNB-19): > 100 µM (inactive)
GI50 (SNB-75): > 100 µM (inactive)
GI50 (SNB-78): > 100 µM (inactive)
GI50 (SW-620): > 100 µM (inactive)
GI50 (U-251): > 100 µM (inactive)
GI50 (UACC-257): > 100 µM (inactive)
GI50 (UACC-62): > 100 µM (inactive)
GI50 (UO-31): > 100 µM (inactive)
GI50 (XF498): > 100 µM (inactive)
